The text below walks through data of ChEMBL document CHEMBL1134162 (Bioorg Med Chem Lett, 2001).

The target in experiment [1] is T1, Mu-type opioid receptor (Cavia porcellus, UniProt P97266). Briefly: In vitro inhibitory activity was determined against Opioid receptor mu 1 in guinea pig ileum.
Experiment [2] deals with T2, Delta-type opioid receptor (Mus musculus, UniProt P32300). Briefly: In vitro inhibitory activity was determined against Opioid receptor delta 1 in mouse vas deferens.
Experiment [3] concerns the target Mu-type opioid receptor (Rattus norvegicus, UniProt P33535). As to the kind of experiment: Binding affinity was determined towards Opioid receptor mu 1 in rat brain synaptosomes using [3H]DAMGO as radioligand.
In experiment [4] the target is Mu-type opioid receptor (Rattus norvegicus) (UniProt P33535).
Mu-type opioid receptor (Rattus norvegicus), sequence (P33535 whole entry): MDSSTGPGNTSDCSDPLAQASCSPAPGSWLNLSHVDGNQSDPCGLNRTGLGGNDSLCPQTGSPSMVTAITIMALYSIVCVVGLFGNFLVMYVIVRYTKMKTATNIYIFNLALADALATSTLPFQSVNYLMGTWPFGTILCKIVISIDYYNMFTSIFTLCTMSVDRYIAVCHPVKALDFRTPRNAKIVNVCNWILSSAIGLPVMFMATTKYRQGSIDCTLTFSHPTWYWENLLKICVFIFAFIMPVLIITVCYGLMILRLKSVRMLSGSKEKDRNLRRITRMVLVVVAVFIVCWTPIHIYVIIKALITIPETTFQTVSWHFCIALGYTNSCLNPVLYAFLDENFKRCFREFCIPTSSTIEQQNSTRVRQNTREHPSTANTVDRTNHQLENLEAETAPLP
Description: Selectivity ratio was determined by taking the ratio of Opioid receptor mu 1 to that of Opioid receptor delta 1
Experiment [5] addresses T1, Mu-type opioid receptor. Briefly: Inhibitory activity against Opioid receptor mu 1 of (endomorphin 2) in guinea pig ileum was determined.
Experiment [6] concerns the target T2, Delta-type opioid receptor. Briefly: Inhibitory activity against Opioid receptor delta 1 of (endomorphin 2) in mouse vas deferens was determined.
Experiment [7] addresses T2, Delta-type opioid receptor. As to the kind of experiment: Inhibitory activity against delta receptor of (endomorphin 2) in mouse vas deferens was determined.

T2 sequence (P32300 whole entry): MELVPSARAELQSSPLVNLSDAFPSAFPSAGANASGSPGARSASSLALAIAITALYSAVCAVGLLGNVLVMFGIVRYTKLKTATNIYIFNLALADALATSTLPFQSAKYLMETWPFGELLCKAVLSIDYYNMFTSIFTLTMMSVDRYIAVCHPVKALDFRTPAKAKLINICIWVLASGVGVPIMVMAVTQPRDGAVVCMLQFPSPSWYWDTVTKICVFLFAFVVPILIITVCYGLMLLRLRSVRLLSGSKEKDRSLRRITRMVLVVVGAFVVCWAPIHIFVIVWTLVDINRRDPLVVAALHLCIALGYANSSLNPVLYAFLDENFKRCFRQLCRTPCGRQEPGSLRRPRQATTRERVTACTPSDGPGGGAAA
Mu-type opioid receptor (Rattus norvegicus, UniProt P33535), sequence (P33535 whole entry): as the sequence (P33535 whole entry) above
T1 sequence (P97266 whole entry): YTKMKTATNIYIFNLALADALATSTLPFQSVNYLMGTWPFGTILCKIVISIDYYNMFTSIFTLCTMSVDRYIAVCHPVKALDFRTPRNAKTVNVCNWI

What is called IC50 is the concentration at which inhibition is half-maximal. What is called Ki is a dissociation constant, usually derived from enzyme kinetics or from competition with a known ligand. The low end stands for a stronger hold on the target, the high end for a looser hold on the target. As to `Cc1cc(O)cc(C)c1C[C@H](N)C(=O)NCC(=O)NCC(=O)N[C@@H](Cc1ccccc1)C(=O)N[C@@H](CC(C)C)C(=O)O`, the IC50 is 0.55 nM in experiment [1] and 0.17 nM in experiment [2]. The inhibitory constant (Ki) in experiment [3] is 0.0068 nM. Besides, the SR in experiment [4] came out at 0.22.
With `Cc1cccc(C)c1C[C@H](NC(=O)CNC(=O)CNC(=O)[C@@H](N)Cc1ccc(O)cc1)C(=O)N[C@@H](CC(C)C)C(=O)O`, the IC50 in experiment [1] and in experiment [2] was more than 10 nM throughout. Moreover, in experiment [4], the SR is 0.28.
As to `Cc1cccc(C)c1C[C@@H](NC(=O)CNC(=O)CNC(=O)[C@@H](N)Cc1ccc(O)cc1)C(=O)N[C@@H](CC(C)C)C(=O)O`, the IC50 turned out to be 808 nM in experiment [1] and 624 nM in experiment [2]. The compound also gave a Ki in experiment [3] of 1.25 nM. Besides, the SR in experiment [4] amounted to 0.07.
For `Cc1cccc(C)c1C[C@H](NC(=O)CNC(=O)CNC(=O)[C@@H](N)Cc1c(C)cc(O)cc1C)C(=O)N[C@@H](CC(C)C)C(=O)O`, the values for the Kb in experiment [5] and in experiment [7] were 126 nM and 2570 nM, respectively. In addition, the concentration for half-maximal inhibition (IC50) in experiment [1] and in experiment [6] was more than 10 nM throughout. The same compound gave a Ki in experiment [3] of 5.61 nM. This compound displayed an SR in experiment [4] of 0.14.
On to `Cc1cc(O)cc(C)c1C[C@H](N)C(=O)NCC(=O)NCC(=O)N[C@H](Cc1c(C)cccc1C)C(=O)N[C@@H](CC(C)C)C(=O)O`, for which the IC50 was determined as 2 nM in experiment [1] and 1.45 nM in experiment [2]. Moreover, the Ki in experiment [3] came to 0.03 nM. The compound also had an SR in experiment [4] of 0.19.
